Measurements reported in ChEMBL document CHEMBL1777811, “Actin depolymerizing effect of trisoxazole-containing macrolides” (2011).
The source made the active and inactive calls. The rule behind the calls is not given here.

How the values were obtained:
[1] = system: Trichophyton mentagrophytes; assay: Antifungal activity against Trichophyton mentagrophytes IFO 40996 after 48 to72 hrs by twofold serial dilution method; type: functional
[2] = system: Candida albicans; assay: Antifungal activity against Candida albicans ATCC 10231 after 48 to72 hrs by twofold serial dilution method; type: functional
[3] = system: Aspergillus fumigatus; assay: Antifungal activity against Aspergillus fumigatus HIC 6094 after 48 to72 hrs by twofold serial dilution method; type: functional
[4] = system: Trichophyton rubrum; assay: Antifungal activity against Trichophyton rubrum IFO 9185 after 48 to72 hrs by twofold serial dilution method; type: functional
[5] = system: Staphylococcus aureus; assay: Antibacterial activity against Staphylococcus aureus ATCC 6538p at 100 ug/ml after 24 hrs by twofold serial dilution method; type: functional, organism-based
[6] = system: Bacillus subtilis; assay: Antibacterial activity against Bacillus subtilis ATCC 6633 at 100 ug/ml after 24 hrs by twofold serial dilution method; type: functional, organism-based
[7] = system: Escherichia coli; assay: Antibacterial activity against Escherichia coli ATCC 25922 at 100 ug/ml after 24 hrs by twofold serial dilution method; type: functional, organism-based
[8] = Induction of depolymerization of F-actin at 14 to 114 uM by fluorimetry relative to control
[9] = system: Salmonella typhimurium; assay: Antibacterial activity against Salmonella Typhimurium ATCC 14028 at 100 ug/ml after 24 hrs by twofold serial dilution method; type: functional, organism-based; conditions: Salmonella enterica subsp. enterica serovar Typhimurium
[10] = system: Proteus vulgaris; assay: Antibacterial activity against Proteus vulgaris ATCC 3851 at 100 ug/ml after 24 hrs by twofold serial dilution method; type: functional, organism-based
[11] = system: Staphylococcus aureus; assay: Antibacterial activity against Staphylococcus aureus IFO 12708 at 100 ug/ml after 24 hrs by twofold serial dilution method; type: functional, organism-based
[12] = Induction of depolymerization of F-actin at 15 to 120 uM by fluorimetry relative to control
[13] = Induction of depolymerization of F-actin by fluorimetry
[14] = Induction of depolymerization of F-actin at 7.28 uM by fluorimetry relative to control
[15] = Induction of depolymerization of F-actin at 1.82 uM by fluorimetry relative to control
[16] = Induction of depolymerization of F-actin at 112 uM by fluorimetry relative to control

Structure (SMILES) | MIC [1] | MIC [2] | MIC [3] | MIC [4] | Activity [5] | Activity [6] | Activity [7] | Activity [8] | Activity [9] | Activity [10] | Activity [11] | Activity [12] | Activity [13] | Activity [14] | Activity [15] | Activity [16]
C[C@@H]1[C@H](O)[C@@H](C)/C=C/C=C/C=C/C=C/C=C/C=C/C=C/[C@H](O[C@@H]2O[C@H](C)[C@@H](O)[C@H](N)[C@@H]2O)C[C@@H]2O[C@](O)(C[C@@H](O)C[C@@H](O)[C@H](O)CC[C@@H](O)C[C@@H](O)CC(=O)O[C@H]1C)C[C@H](O)[C@H]2C(=O)O [AMPHOTERICIN B] | 0.84 µM | 0.22 µM | 0.84 µM | 0.84 µM |  |  |  |  |  |  |  |  |  |  |  | 
COC(CC1OC(=O)CC(O)CC(O)CC(=O)C(C)C(OC)c2coc(n2)-c2coc(n2)-c2coc(n2)/C=C/CCC1C)C(C)CCC(=O)C(C)C(C/C=C/N(C)C=O)OC (stereo unspecified) [JASPISAMIDE A] | > 100 µg/mL | > 100 µg/mL | > 100 µg/mL | > 100 µg/mL | inactive | inactive | inactive | inactive | inactive | inactive | inactive |  |  |  |  | 
COC(CC1OC(=O)CC(O)/C=C/CC(=O)C(C)C(OC)c2coc(n2)-c2coc(n2)-c2coc(n2)/C=C/CCC1C)C(C)CCC(=O)C(C)C(C/C=C/N(C)C=O)OC (stereo unspecified) [NEOHALICHONDRAMIDE] | > 100 µg/mL | > 100 µg/mL | > 100 µg/mL | > 100 µg/mL | inactive | inactive | inactive |  | inactive | inactive | inactive | inactive |  |  |  | 
COC(CC1OC(=O)CC(O)C/C=C/C(=O)C(C)C(OC)c2coc(n2)-c2coc(n2)-c2coc(n2)/C=C/CCC1C)C(C)CCC(=O)C(C)C(C/C=C/N(C)C=O)OC (stereo unspecified) [HALICHONDRAMIDE] | 0.91 µM | 0.23 µM | 0.45 µM | 0.48 µM | inactive | inactive | inactive |  | inactive | inactive | inactive |  | Dose-dependent effect | > 90% |  | 
COC(CC1OC(=O)CC(O)C/C=C\C(=O)C(C)C(OC)c2coc(n2)-c2coc(n2)-c2coc(n2)/C=C\CCC1C)C(C)CCC(=O)C(C)C(C/C=C/N(C)C=O)OC (stereo unspecified) | 14.6 µM | 0.91 µM | 14.6 µM | 7.27 µM | inactive | inactive | inactive |  | inactive | inactive | inactive |  | Dose-dependent effect |  | > 90% | 
COC(=O)c1coc(/C=C/CCC(C)C(CC(OC)C(C)CCC(=O)C(C)C(C/C=C/N(C)C=O)OC)OC(=O)CC(O)C/C=C/C(=O)C(C)C(OC)c2coc(C(N)=O)n2)n1 (stereo unspecified) [HALISHIGAMIDE D] | > 100 µg/mL | > 100 µg/mL | > 100 µg/mL | > 100 µg/mL | inactive | inactive | inactive |  | inactive | inactive | inactive |  |  |  |  | 40%
